# Test results: patent US20230055457A1, “CELL EXPANSION METHODS FOR PREVENTING CELL SENESCENCE AND PRESERVING THE THERAPEUTIC POTENCY OF HUMAN MESENCHYMAL STEM CELLS” (THE FLORIDA STATE UNIVERSITY RESEARCH FOUNDATION, INC., priority 2020, published 2023)
# Entries after “also recorded” stand apart in the source; their conditions may differ.
# Columns and labels:
# senescent hMSCs [1] = experiment: Colony forming unit-fibroblast (CFU-F) assay; type: cell-based, human; details: senescent hMSCs with NAM treatment
# Procedure: Colony forming unit-fibroblast (CFU-F) were determined as following: hMSCs were harvested and re-plated at the density of 15 cells/cm2 on 60 cm2 culture dish and cultured for another 14 days in CCM. Cells were then stained with 20% crystal violet solution in methanol for 15 minutes at room temperature (RT) and washed with phosphate-buffered saline (PBS) wash, the numbers of individual colonies were counted manually.
# senescent hMSCs [2] = experiment: Mitochondrial membrane potential (MMP), TMRM flow cytometry; type: cell-based, human; details: senescent hMSCs with NAM treatment
# Procedure: For MMP measurement, trypsinized MSCs were washed by centrifugation in warm Hank's Balanced Salt Solution (HBSS). Cell suspension was incubated with tetramethylrhodamine, methyl ester (TMRM) (Molecular Probe, Eugene, Oreg.) at 37° C., washed with HBSS, and analyzed by flow cytometry (BD Biosciences, San Jose, Calif.).
# senescent hMSCs [3] = experiment: Intracellular NAD+ and NADH level of hMSCs; type: cell-based, human
# Procedure: (§1) hMSCs at passage 2 were expanded and cultured in complete culture medium(CCM). Cells were grown to 70-80% confluence and then harvested by incubation with 0.25% trypsin/EDTA. Harvested cells were re-plated at a density of 2,000 cells/cm^2 and sub-cultured up to Passage 12 in a standard CO2 incubator. hMSC sat Passage 5 (P5) and passage 12 (P12) were used for experiments. Stem cell properties including senescence, stem cell gene, cell cycle, proliferation rate were determined. Gas chromatography-mass spectrometry (GC-MS) and seahorse flux analyzer were used for characterization of energy metabolism phenotype. Mitochondrial functions were assessed by mitochondrial mass, membrane potential, electron transport complex activity and biogenesis. NAD+/NADH and Sirt-1 and -3 level was also measured in P5 and P12 hMSCs. NAD+ precursor nicotinamide (NAM) was used in CCM to adjust NAD+ level intracellularly.
# hMSC = experiment: Mitochondrial fitness of hMSCs; type: cell-based, human
# Procedure: as §1
# senescent hMSCs [4] = experiment: Basal autophagy by Cyto-ID Green flow cytometry; type: cell-based, human; details: senescent hMSCs with NAM treatment
# Procedure: (§2) For autophagy measurement, aliquots of cell suspension were incubated with 20 μM Cyto-ID Green (Enzo Life Sciences, Farmingdale, N.Y.), a fluorescent dye that selectively labels accumulated autophagic vacuoles, at 37° C. for 30 minutes, and analyzed by flow cytometry (BD Biosciences, San Jose, Calif.). For mitophagy measurement, […]
# [5] = test system: electron transport chain complex I; experiment: Mitochondrial complex I (ETC-I) activity; type: cell-based, human; details: senescent hMSCs with NAM treatment
# Procedure: hMSCs were centrifuged, re-suspended in DI water, and heated immediately in a boiling water bath for 15 minutes. The mixture was centrifuged and ATP containing supernatant was collected. Upon measurement, 10 μL of ATP solution was mixed with 100 μL of the luciferin-luciferase reagent, and the bioluminescent signal was measured using an Orion Microplate Luminometer (Bad Wildbad, Deutschland) after 15 min incubation at room temperature. Activity of mitochondrial complex I was determined using the Complex I Enzyme Activity Microplate Assay Kit (Abcam, Cambridge, Mass.) according to the kit instructions.
# senescent hMSCs [6] = experiment: Cellular senescence by SA-β-Gal activity assay; type: cell-based, human; details: senescent hMSCs with NAM treatment
# Procedure: Cellular senescence was evaluated by SA-β-Gal activity assay kit (Sigma, St. Louis, Mo.) as described in manufacture instructions.
# senescent hMSCs [7] = experiment: Mitophagy measurement; type: cell-based, human; details: senescent hMSCs with NAM treatment
# Procedure: as §2
# [8] = test system: muscle stem cells (muscle-SCs) and hematopoietic stem cells (HSC); details: aged muscle-SCs and HSCs, restoring autophagy; cited from earlier work
# [9] = continuous supplement of NAM (1 mM), FIG. 17
compound,measurement,setting,value
"NC(=O)c1cccnc1 [NAM, nicotinamide]",colony forming ability,senescent hMSCs [1]; in words,improved
same,colony forming ability of hMSCs (CFU-F),senescent hMSCs [1]; control 3 CFU,11 CFU
same,mitochondrial membrane potential (MMP),senescent hMSCs [2],enhanced; also recorded: increased
same,hMSC cellular NAD+ level,senescent hMSCs [3]; [9],maintains
same,Cellular NAD+ level,"senescent hMSCs [3]; late passage hMSCs with culture-induced senescence, 96 h of NAM treatment",significantly increased; also recorded: potential improvement
same,"boosting intracellular NAD+ level, NAM compared to NMN","senescent hMSCs [3]; stem cells in culture, FIG. 16",better
same,"boosting intracellular NAD+ level, NAM compared with NR","senescent hMSCs [3]; stem cells in culture, FIG. 16",no significant difference
same,mitochondrial fitness,hMSC; [9],maintains
same,recovery of mitochondria,"hMSC; senescent hMSCs, supplement of NAM",recovery
same,Basal autophagy level,senescent hMSCs [4],restored; also recorded: increased
same,ETC-I activity,[5],enhanced; also recorded: increased
same,"hMSC senescence, SA-β-gal activity",senescent hMSCs [6],decreased; also recorded: reduced
same,mitophagy,senescent hMSCs [7],restored; also recorded: increased
"NC(=O)c1ccc[n+]([C@@H]2O[C@H](COP(=O)([O-])O)[C@@H](O)[C@H]2O)c1 [NMN, nicotinamide mononucleotide]","boosting intracellular NAD+ level, NAM compared to NMN","senescent hMSCs [3]; stem cells in culture, FIG. 16",NAM is better
"NC(=O)c1ccc[n+]([C@@H]2O[C@H](CO)[C@@H](O)[C@H]2O)c1 [NR, nicotinamide riboside]","boosting NAD+/NADH ratio, NAM compared with NR","senescent hMSCs [3]; stem cells in culture, FIG. 16",no significant difference
same,"boosting intracellular NAD+ level, NAM compared with NR","senescent hMSCs [3]; stem cells in culture, FIG. 16",no significant difference
NCCCCNCCCN [spermidine],stem cell functions in vivo,[8],restored
